Source: patent US9309222B2, “Phenyl linked quinolinyl modulators of RORγt” (Janssen Pharmaceutica NV, priority 2012, dated 2016)
Where a name gives a salt, the structure may show the parent alone.

Key:
[1] = target: T1, human RORγt LBD (Homo sapiens, UniProt P51449); assay: RORγt reporter assay (GAL4-RORγt LBD luciferase in HEK293T cells); format: cell-based; conditions: for inhibition at 6 µM: HEK-293T, read-out: RORγt reporter Assay, % inhibition @ 6 μM, HEK293T cells, 6 μM compound; for IC50 / RORγt reporter Assay, % inhibition @ 6 μM: HEK293T cells; for IC50: 24 hours compound treatment; for RORγt reporter Assay, % inhibition @ 6 μM: 6 μM compound
T1 construct: expressed in transfected cells
T1 sequence (P51449 258-518): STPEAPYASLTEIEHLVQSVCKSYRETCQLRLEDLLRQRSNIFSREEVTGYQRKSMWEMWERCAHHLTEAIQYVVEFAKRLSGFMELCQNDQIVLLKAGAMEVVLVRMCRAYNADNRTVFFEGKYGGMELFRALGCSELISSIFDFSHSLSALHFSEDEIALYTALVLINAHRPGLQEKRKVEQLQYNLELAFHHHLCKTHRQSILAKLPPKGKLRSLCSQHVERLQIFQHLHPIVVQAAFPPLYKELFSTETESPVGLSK
Description: A reporter assay was used to test functional activity of RORγt modulatory compounds on transcriptional activation driven by the RORγt LBD. Cells used in the assay were co-transfected with two constructs. The first construct, pBIND-RORγt LBD, contained the wild type human RORγt LBD fused to the DNA binding domain of the GAL4 protein. The second construct, pGL4.31 (Promega Cat no. C935A), contained multiple GAL4 responsive DNA elements upstream of firefly luciferase. […] The mutant construct was called pBIND-RORγt-AF2.
The pBIND vector contains the GAL4 DNA Binding Domain (GAL4 DBD) and the renilla luciferase gene under control of the SV40 promoter. Renilla luciferase expression serves as a control for transfection efficiency and cell viability.
The reporter assay was performed by transiently transfecting HEK293T cells with 5 ng of pBIND-RORγt LBD or pBIND-RORγt LBD-AF2 and 5 μg pGL4.31 (Promega Cat no. C935A) using Fugene 6 (Invitrogen Cat no. E2691) at a 1:6 ratio of DNA:Fugene 6 in a T-75 flask in which cells were at least 80% confluent. Twenty four hours after bulk transfection, cells were plated into 96-well plates at 50,000 cells/well in phenol-red free DMEM containing 5% Lipid Reduced FCS and Pen/Strep. Six hours after plating, cells were treated with compounds for 24 hours. Media was removed and cells were lysed with 50 μL 1× Glo Lysis Buffer (Promega). Dual Glo Luciferase Reagent (50 μL/well) was then added and firefly luciferase luminescence was read on an Envision after a ten minute incubation. Finally, Stop and Glo reagent (50 μL/well) was added and renilla luciferase luminescence was read on an Envision after a ten minute incubation. To calculate the effect of compounds on RORγt activity, the ratio of firefly to renilla luciferase was determined and plotted against compound concentration. Agonist compounds increase RORγt-driven luciferase expression, and antagonist or inverse agonist compounds decrease luciferase expression.

[2] = target: T2, human RORγt ligand binding domain (RORγt LBD) (Homo sapiens, UniProt P51449); assay: RORγt ThermoFluor assay (thermal shift, ligand binding affinity); conditions: estimated from concentration response of thermal shift
T2 construct: His-tag (N); TurboTEV protease cleavage site (ENLYFQG) (N); made in house; host or cells: E. coli (pHIS1, modified pET vector)
T2 sequence (P51449 with tags, fused parts or gaps): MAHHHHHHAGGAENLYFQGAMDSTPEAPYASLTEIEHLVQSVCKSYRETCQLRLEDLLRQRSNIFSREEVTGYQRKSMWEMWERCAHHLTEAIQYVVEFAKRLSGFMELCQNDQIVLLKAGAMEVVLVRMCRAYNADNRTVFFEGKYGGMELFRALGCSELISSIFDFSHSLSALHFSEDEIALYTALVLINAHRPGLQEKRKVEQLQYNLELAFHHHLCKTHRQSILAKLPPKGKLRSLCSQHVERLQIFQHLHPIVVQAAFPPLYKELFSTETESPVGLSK
Method: This approach is applicable to a wide variety of systems, and rigorous in theoretical interpretation through quantitation of equilibrium binding constants (KD).
The shift in the melting point described as a ΔTm is proportional to the concentration and affinity of the ligand.
RORγt ThermoFluor® Assay Construct
Protein and compound solutions are dispensed into black 384-well polypropylene PCR microplates (Abgene) and overlayed with silicone oil (1 μL Fluka, type DC 200) to prevent evaporation.
Fluorescence was measured by continuous illumination with UV light (Hamamatsu LC6) supplied via fiber optic and filtered through a band-pass filter (380-400 nm; >6 OD cutoff). Fluorescence emission of the entire 384-well plate was detected by measuring light intensity using a CCD camera (Sensys, Roper Scientific) filtered to detect 500±25 nm, resulting in simultaneous and independent readings of all 384 wells. Images were collected at each temperature, and the sum of the pixel intensity in a given area of the assay plate was recorded versus temperature. Reference wells contained RORγt without compounds, and the assay conditions were as follows: • 0.065 mg/mL RORγt • 60 μM 1,8-ANS • 100 mM Hepes, pH 7.0 • 10 mM NaCl • 2.5 mM GSH • 0.002% Tween-20
Project compounds were arranged in a pre-dosed mother plate (Greiner Bio-one) wherein compounds are serially diluted in 100% DMSO by 1:2 from a high concentration of 10 mM over 12 columns within a series (column 12 is a reference well containing DMSO, no compound).
The compounds were robotically dispensed directly into assay plates (1×=[…]) using a Hummingbird capillary liquid handling instrument (Digilab). Following compound dispense, protein and dye in buffer was added to achieve the final assay volume of 3 μL, followed by 1 μL of silicone oil.

| SMILES | inhibition at 6 µM [1] | Kd [2] | IC50 [1] | RORγt reporter Assay, % inhibition @ 6 μM [1] |
| --- | --- | --- | --- | --- |
| Cn1cncc1C(O)(c1ccc(C(F)(F)F)nc1)c1ccc2nc(C(F)(F)F)c(-c3ccccc3)c(C#N)c2c1 (racemic) [Example 173a, 6-(Hydroxy(1-methyl-1H-imidazol-5-yl)(6-(trifluoromethyl)pyridin-3-yl)methyl)-3-phenyl-2-(trifluoromethyl)quinoline-4-carbonitrile•TFA] | 103% |  |  |  |
| CC(=O)N1CCC(C(O)(c2ccc3nc(C(F)(F)F)c(-c4ccccc4)c(C(F)(F)F)c3c2)c2cncn2C)CC1 (racemic) [Example 181a, 1-(4-(Hydroxy(1-methyl-1H-imidazol-5-yl)(3-phenyl-2,4-bis(trifluoromethyl)quinolin-6-yl)methyl)piperidin-1-yl)ethanone] | 101% | 16 nM | 140 nM |  |
| COc1nc2c(C)cc(C(O)(c3ccc(C(F)(F)F)nc3)c3cncn3C)cc2c(Cl)c1-c1ccc(OC(F)(F)F)cc1 (racemic) [Example 183a, (4-Chloro-2-methoxy-8-methyl-3-(4-(trifluoromethoxy)phenyl)quinolin-6-yl)(1-methyl-1H-imidazol-5-yl)(6-(trifluoromethyl)pyridin-3-yl)methanol•TFA] |  | 9.3 nM | > 6000 nM |  |
| Cn1cncc1C(O)(c1ccc2nc(C(F)(F)F)c(-c3ccccc3)c(C(F)(F)F)c2c1)c1ccccn1 (racemic) [Example 185a, (1-Methyl-1H-imidazol-5-yl)(3-phenyl-2,4-bis(trifluoromethyl)quinolin-6-yl)(pyridin-2-yl)methanol] | 100% | 74 nM | 200 nM |  |
| Cn1cncc1C(O)(c1ccc(Cl)cc1)c1ccc2nc(Cl)c(-c3ccccc3Cl)c(Cl)c2c1 (single isomer, unassigned) [Example 153d, (4-Chlorophenyl)(2,4-dichloro-3-(2-chlorophenyl)quinolin-6-yl)(1-methyl-1H-imidazol-5-yl)methanol] |  | 3500 nM | 1500 nM | 75% |
| Cn1cncc1C(O)(c1ccc(C(F)(F)F)nc1)c1ccc2nc(C(F)(F)F)c(-c3ccccc3)c(C#N)c2c1 (single isomer, unassigned) [Example 173b, 6-(Hydroxy(1-methyl-1H-imidazol-5-yl)(6-(trifluoromethyl)pyridin-3-yl)methyl)-3-phenyl-2-(trifluoromethyl)quinoline-4-carbonitrile] | 100% |  |  |  |
| Cc1cc(C(O)(c2ccc(F)cc2)c2cncn2C)cc2c(C#N)c(-c3cccc(F)c3)c(C#N)nc12 (single isomer, unassigned) [Example 175b, 3-(3-Fluorophenyl)-6-((4-fluorophenyl)(hydroxy)(1-methyl-1H-imidazol-5-yl)methyl)-8-methylquinoline-2,4-dicarbonitrile] | 76% | 8200 nM | 2100 nM |  |
| Cc1cc(C(O)(c2ccc(C(F)(F)F)nc2)c2cncn2C)cc2c(C#N)c(-c3cccc(F)c3)c(C#N)nc12 (single isomer, unassigned) [Example 176b, 3-(3-Fluorophenyl)-6-(hydroxy(1-methyl-1H-imidazol-5-yl)(6-(trifluoromethyl)pyridin-3-yl)methyl)-8-methylquinoline-2,4-dicarbonitrile] | 94% | 3400 nM | 1500 nM |  |
| COc1nc2c(C)cc(C(O)(c3ccc(F)cc3)c3cncn3C)cc2c(Cl)c1-c1cccc(F)c1 (single isomer, unassigned) [Example 178b, (4-Chloro-3-(3-fluorophenyl)-2-methoxy-8-methylquinolin-6-yl)(4-fluorophenyl)(1-methyl-1H-imidazol-5-yl)methanol] |  | 21000 nM | 610 nM | 72% |
| Cc1ccc(C(O)(c2cc[nH]c2)c2cc(C)c3nc(Cl)c(-c4ccccc4)c(Cl)c3c2)cn1 (centres unmarked) [Example 157, (2,4-Dichloro-8-methyl-3-phenylquinolin-6-yl)(6-methylpyridin-3-yl)(1H-pyrrol-3-yl)methanol•TFA] |  | 2800 nM |  |  |
